From patent US12286632B2, “Rationally-designed synthetic peptide shuttle agents for delivering polypeptide cargos from an extracellular space to the cytosol and/or nucleus of a target eukaryotic cell, uses thereof, methods and kits relating to same” (Feldan Bio Inc., priority 2016, dated 2025)
Ends that are not written are not given here. Peptide text beside a SMILES is read from it.

How the values were obtained:
[1] = in vitro; details: human, HeLa cells
[2] = in vitro; details: human, HeLa cells; remark: listed apart in the source
[3] = tested on: HeLa cells; experiment: GFP-NLS protein transduction assay (flow cytometry: Pos cells %, viability %, relative fluorescence intensity; microscopy); details: GFP-NLS 5 μM; for Cell viability (%) (±St. Dev.; n = 3): Protocol B; for Cell viability (%) (±St. Dev.; n = 3) / FIG. 21B Cell viability (%) (±St. Dev.; n = 3): HeLa; for FIG. 21B Cell viability (%) (±St. Dev.; n = 3): Table 8.1, 1 hour; for cell viability: peptide 20 μM, Protocol B (Table 10.3e)
[4] = Cell viability (%) (±St. Dev.; n = 3)
[5] = Cell viability (%) (±St Dev.; n = 3)
[6] = Table 10.3e, shuttle 20 μM, 1 minute
[7] = Table 10.1, shuttle 50 μM, 10 seconds

Compound	viability [1] [%]	viability at 1 min, 10 µM [2, 4] [%]	also measured
CC[C@H](C)[C@H](N)C(=O)N[C@H](C(=O)N[C@@H](CCCNC(=N)N)C(=O)N[C@@H](Cc1c[nH]cn1)C(=O)N[C@@H](CCC(=O)O)C(=O)N[C@@H](Cc1c[nH]cn1)C(=O)N[C@@H](CS)C(=O)N[C@@H](CCSC)C(=O)N[C@H](C(=O)N[C@@H](Cc1c[nH]cn1)C(=O)N[C@@H](CC(C)C)C(=O)N[C@@H](Cc1c[nH]c2ccccc12)C(=O)N[C@@H](Cc1ccc(O)cc1)C(=O)N[C@@H](CCCCN)C(=O)N[C@@H](CC(N)=O)C(=O)N[C@@H](CC(C)C)C(=O)N[C@@H](C)C(=O)N[C@@H](CCCCN)C(=O)N[C@@H](Cc1ccc(O)cc1)C(=O)N[C@@H](CS)C(=O)N[C@@H](CO)C(=O)N[C@H](C(=O)N[C@@H](CO)C(=O)N[C@@H](Cc1c[nH]cn1)C(=O)N[C@@H](C)C(=O)N[C@@H](CCCNC(=N)N)C(=O)N[C@@H](CCCNC(=N)N)C(=O)N[C@@H](CC(C)C)C(=O)N[C@@H](C)C(=O)N[C@@H](CCCNC(=N)N)C(=O)N[C@@H](CCCNC(=N)N)C(=O)N[C@@H](CCCNC(=N)N)C(=O)N[C@@H](C)C(=O)N[C@@H](Cc1c[nH]cn1)C(=O)N[C@@H](Cc1c[nH]cn1)C(=O)O)[C@@H](C)O)[C@@H](C)CC)C(C)C [FSD32] (H-IVRHEHCMIHLWYKNLAKYCSTSHARRLARRRAHH-OH)	98.36 ± 0.15	99.2 ± 3.37	–
CC[C@H](C)[C@H](NC(=O)[C@H](Cc1c[nH]cn1)NC(=O)[C@@H](NC(=O)[C@H](CC(C)C)NC(=O)[C@H](CS)NC(=O)[C@H](Cc1c[nH]cn1)NC(=O)[C@H](Cc1c[nH]cn1)NC(=O)[C@H](Cc1c[nH]cn1)NC(=O)[C@H](Cc1c[nH]cn1)NC(=O)[C@H](Cc1c[nH]cn1)NC(=O)[C@@H](N)Cc1c[nH]cn1)[C@@H](C)CC)C(=O)N[C@@H](Cc1c[nH]c2ccccc12)C(=O)N[C@@H](CCC(=O)O)C(=O)N[C@@H](C)C(=O)N[C@@H](CCCCN)C(=O)N[C@@H](CC(C)C)C(=O)N[C@@H](C)C(=O)N[C@@H](CCCCN)C(=O)N[C@@H](CCCCN)C(=O)N[C@@H](CS)C(=O)NCC(=O)NCC(=O)NCC(=O)NCC(=O)N[C@@H](Cc1ccc(O)cc1)C(=O)N[C@@H](C)C(=O)N[C@@H](CCCNC(=N)N)C(=O)N[C@@H](C)C(=O)N[C@@H](C)C(=O)N[C@@H](C)C(=O)N[C@@H](CCCNC(=N)N)C(=O)N[C@@H](CCC(N)=O)C(=O)N[C@@H](C)C(=O)N[C@@H](CCCNC(=N)N)C(=O)N[C@@H](C)C(=O)O [FSD36] (H-HHHHHHCLIHIWEAKLAKKCGGGGYARAAARQARA-OH)	97 ± 1.99	98.9 ± 0.38	–
ALLGLFIKWVKKVGTLFRKAKAGAQNRRAKAQKGK [FSD26]	97.2 ± 1.53	–	viability [2, 5]: 59.3 ± 1.27%
GHHHHHHHLIHIWEAKLAKLAKALARAAARQARAK [FSD38]	95 ± 2.78	98.1 ± 7.35	–
HHHHAAVLKLWKRLLKLFRKGRRLKAKRAKAKR [FSD20]	20.5 ± 3.53	–	viability [2, 5]: 65.4 ± 6.18%
HHHHHHCLLKKWEAKLAKKIGGGGRQARAKALAKA [FSD30]	97.4 ± 2.06	99.1 ± 0.52	–
HHHHHHHHRQRRRWEARGFLGGGGYARAARQARAA [FSD39]	99.2 ± 0.61	97.3 ± 2.07	–
HHHHHHHHRQRRRWEARGGFLGGGGYARAARQARA [FSD33]	75.3 ± 4.19	98.1 ± 1.73	–
HHHHHHHMAHLWESNARKFWKKAFAQHAAAHIAEA [FSD28]	97 ± 1.11	99.4 ± 4.04	–
HHHHHHKLIHIWEAKLFKKIRAAARQARARRAAKA [FSD34]	96.4 ± 2.41	97.9 ± 8.18	viability at 1 min, 10 µM ([2]; cell viability): 83.9 to 98%
HHHHHHKLLKRWEAKLAKALAKALAKHLAKALAKA [FSD35]	96.1 ± 1.67	81.7 ± 3.45	–
HHHHHHKWKIARAFARSLKKLYARLLARQAKTGHHHHHH [FSD15]	98.3 ± 1.07	–	viability [2]: 96.1 ± 2.61%
HHHHHHKWKLARAFARAIKKLYARALRRQARTG [FSD8]	42.3 ± 6.42	–	viability [2, 5]: 64.8 ± 7.59%
HHHHHHKWKLARAFARAIKKLYARALRRQARTGHHHHHH [FSD9]	36.1 ± 3.41	79.5 ± 6.33	viability [2, 5]: 67.3 ± 5.19%; viability at 1 min, 8 µM [2, 4]: 82.3 ± 7.16%; viability at 2 min, 5 µM [2, 4]: 45.6 ± 3.64%
HHHHHHKWKLARAFARALRAIKKLYARALRRQARTG [FSD11]	46.2 ± 1.35	–	viability [2, 5]: 60.9 ± 7.59%
HHHHHHKWKLFKKIGAVLKVLTTGYARAAARQARAHHHHHH [His-CM18-PTD4-His]	29.4 ± 2.38	–	Cell viability (%) (±St. Dev.; n = 3) ([3]; Table 10.3c, shuttle 10 μM, incubation 1 min): 68.1 ± 2.7%; Cell viability (%) (±St. Dev.; n = 3) ([3]; Table 10.3c, shuttle 10 μM, incubation 2 min): 61.6 ± 3.2%; Cell viability (%) (±St. Dev.; n = 3) ([3]; Table 10.3c, shuttle 10 μM, incubation 5 min): 41.2 ± 4.4%; Cell viability (%) (±St. Dev.; n = 3) [3, 6]: 78.6 ± 1.1%

Compound	viability [1] [%]	viability at 1 min, 10 µM [2, 4] [%]	also measured
HHHHHHKWKLFKKIGAVLKVLTTGYGRKKRRQRRR [His-CM18-TAT]	13.6 ± 0.18	–	FIG. 21B Cell viability (%) (±St. Dev.; n = 3) ([3]; shuttle 1 μM): 95 ± 3.05%; FIG. 21B Cell viability (%) (±St. Dev.; n = 3) ([3]; shuttle 3 μM): 91 ± 5.18%; FIG. 21B Cell viability (%) (±St. Dev.; n = 3) ([3]; shuttle 5 μM): 86 ± 4.59%; Cell viability (%) (±St. Dev.; n = 3) [3, 7]: 35.2 ± 5.7%; Cell viability (%) (±St. Dev.; n = 3) ([3]; Table 10.3a, shuttle 50 μM, 10 seconds): 35.2 ± 5.7%
HHHHHHKWKLFWEAKLAKYARAAARQARAARQARA [FSD27]	98 ± 0.63	96.6 ± 4.94	viability at 1 min, 10 µM ([2]; cell viability): 83.9 to 98%
HHHHHHLLKLWSRLLKLWTQGRRLKAKRAKA [FSD16]	99.07 ± 0.73	–	viability [2, 5]: 88.2 ± 2.66%
HHHHHHWARLARAFARAIKKLYARALRRQARTG [FSD7]	60.9 ± 7.59	–	viability [2, 5]: 38.5 ± 3.48%
HHHHHHWLKLLRRAAKKAARLYRKLLRKARKLHHHHHH [FSD2]	55.8 ± 4.19	–	viability [2, 5]: 76.3 ± 5.99%
HHHKWKLFKKIGAVLKVLTTGYARAAARQARA [3His-CM18-PTD4]	82 ± 6.81	–	Cell viability (%) (±St. Dev.; n = 3) [3, 6]: 39.2 ± 3.3%
KWKLFKKIGAVLKVLTTG [CM18, reference compound]	99.4 ± 0.14	–	Cell viability (%) (±St. Dev.; n = 3) ([3]; Table 10.4, peptide 50 μM, 10 seconds): 95 ± 1.2%
KWKLFKKIGAVLKVLTTGGGSGGGSGGGSGYARAAARQARA [CM18-L3-PTD4]	98.4 ± 0.83	–	cell viability ([3]; 1 minute): increased cell viability; viability at 1 min, 20 µM [2]: 71.9 ± 6%
KWKLFKKIGAVLKVLTTGGGSGGGSYARAAARQARA [CM18-L2-PTD4]	93.7 ± 3.07	–	Cell viability (%) (±St. Dev.; n = 3) [3, 6]: 64.0 ± 1.3%; cell viability ([3]; 1 minute): increased cell viability
KWKLFKKIGAVLKVLTTGGGSYARAAARQARA [CM18-L1-PTD4]	84.3 ± 5.64	–	Cell viability (%) (±St. Dev.; n = 3) [3, 6]: 50.1 ± 3.8%; cell viability ([3]; 1 minute): increased cell viability
KWKLFKKIGAVLKVLTTGYARAAARQARA [CM18-PTD4]	49.6 ± 5.06	–	Cell viability (%) (±St. Dev.; n = 3) [3, 6]: 33.9 ± 3.7%; cell viability ([3]; 1 minute): 33.9%
LHHHHHKLIHIWEAKLAKALAKALARRAAARQARA [FSD41]	94.4 ± 2.81	79.5 ± 0.33	–
YGRKKRRQRRRCKWKLFKKIGAVLKVLTTG [TAT-CM18]	44.8 ± 4.17	–	Cell viability (%) (±St. Dev.; n = 3) [3, 7]: 23.5 ± 1.1%; Cell viability (%) (±St. Dev.; n = 3) ([3]; Table 10.3b, shuttle 50 μM, 10 seconds): 23.5 ± 1.1%
YGRKKRYMLRLWYQNLRMYCKKAYAQHRARQHAKL [FSD40]	98.6 ± 1.08	83.9 ± 4.16	viability at 1 min, 10 µM ([2]; cell viability): 83.9 to 98%
YHHHHHKWKKRWEAKLAKALRAAGRQARAKALAKA [FSD31]	98.43 ± 0.43	97.8 ± 4.22	–
